In patent publication US10336697B2, “Spiro[cyclobutane-1,3′-indolin]-2′-one derivatives as bromodomain inhibitors” (Orion Corporation, priority 2015, dated 2019) one finds IC50 data, which are given here for 32 molecules.

In the assay the target is Bet BRD4 full length bromo-domain protein (Homo sapiens, UniProt O60885). Put plainly: Bet bromodomain TR-FRET assay (displacement of acetyl histone peptide). It counts as binding. The conditions noted are these: Bet BRD4 full length bromodomain protein, 300 nM acetyl histone peptide substrate, read-out: IC50.

The IC50 is the concentration that inhibits the measured activity by half.

On to `CN1CCC(CNc2cc(NS(=O)(=O)c3ccc(F)cc3F)cc3c2NC(=O)C32CCC2)CC1` [Compound 32, 2,4-Difluoro-N-(7′-(((1-methylpiperidin-4-yl)methyl)amino)-2′-oxospiro[cyclobutane-1,3′-indolin]-5′-yl)benzenesulfonamide], for which the IC50 is < 0.6 µM.

Take `O=C1CCC(Nc2cc(NS(=O)(=O)c3ccc(F)cc3F)cc3c2NC(=O)C32CCC2)CN1` (centres unmarked) [Compound 33, 2,4-Difluoro-N-(2′-oxo-7′-((6-oxopiperidin-3-yl)amino)spiro[cyclobutane-1,3′-indolin]-5′-yl)benzenesulfonamide]: the IC50 is < 0.6 µM.

As for `CC1(C)CN(Cc2ccccc2)CCC1Nc1cc(NS(=O)(=O)c2ccc(F)cc2F)cc2c1NC(=O)C21CCC1` (centres unmarked) [Compound 36, N-(7′-((1-benzyl-3,3-dimethylpiperidin-4-yl)amino)-2′-oxospiro[cyclobutane-1,3′-indolin]-5′-yl)-2,4-difluorobenzenesulfonamide], the IC50 was 0.6 to 1 µM.

Consider `CC(C)(C)OC(=O)N1CCC(Nc2cc(NS(=O)(=O)c3ccc(F)cc3F)cc3c2NC(=O)C32CCC2)C(F)C1` (centres unmarked) [Compound 37, tert-Butyl 4-((5′-(2,4-difluorophenylsulfonamido)-2′-oxospiro[cyclobutane-1,3′-indolin]-7′-yl)amino)-3-fluoro piperidine-1-carboxylate], for which the IC50 is > 1 µM.

In the case of `COc1ccccc1S(=O)(=O)Nc1cc(NC2CCCN(C)C2)c2c(c1)C1(CCC1)C(=O)N2` (centres unmarked) [Compound 38, 2-Methoxy-N-(7′-((1-methylpiperidin-3-yl)amino)-2′-oxospiro[cyclobutane-1,3′-indolin]-5′-yl)benzenesulfonamide], the concentration for half-maximal inhibition (IC50) is < 0.6 µM.

Consider `COc1ccccc1S(=O)(=O)Nc1cc(NC2CCN(C)CC2)c2c(c1)C1(CCC1)C(=O)N2` [Compound 39, 2-Methoxy-N-(7′-((1-methylpiperidin-4-yl)amino)-2′-oxospiro[cyclobutane-1,3′-indolin]-5′-yl)benzenesulfonamide], for which the IC50 was < 0.6 µM.

For `COC(=O)c1cc(NS(=O)(=O)c2ccc(F)cc2F)cc2c1NC(=O)C21CCC1` [Compound 41, Methyl 5′-((2,4-difluorophenyl)sulfonamido)-2′-oxospiro[cyclobutane-1,3′-indoline]-7′-carboxylate], the IC50 is < 0.6 µM.

For the molecule `O=C(O)c1cc(NS(=O)(=O)c2ccc(F)cc2F)cc2c1NC(=O)C21CCC1` [Compound 42, 5′-((2,4-difluorophenyl)sulfonamido)-2′-oxospiro[cyclobutane-1,3′-indoline]-7′-carboxylic acid], the IC50 was 0.6 to 1 µM.

`CN1CCC(C(=O)Nc2cc(NS(=O)(=O)c3ccc(F)cc3F)cc3c2NC(=O)C32CCC2)CC1` [Compound 43, N-(5′-((2,4-difluorophenyl)sulfonamido)-2′-oxospiro[cyclobutane-1,3′-indolin]-yl)-1-methylpiperidine-4-carboxamide]: the IC50 was 0.6 to 1 µM.

On to `O=C(Nc1cc(NS(=O)(=O)c2ccc(F)cc2F)cc2c1NC(=O)C21CCC1)c1cccnc1` [Compound 44, N-(5′-(2,4-Difluorophenylsulfonamido)-2′-oxospiro[cyclobutane-1,3′-indolin]-7′-yl)nicotinamide], for which the IC50 is > 1 µM.

Consider `O=C(Nc1cc(NS(=O)(=O)c2ccc(F)cc2F)cc2c1NC(=O)C21CCC1)c1ccncc1` [Compound 45, N-(5′-(2,4-Difluorophenylsulfonamido)-2′-oxospiro[cyclobutane-1,3′-indolin]-7′-yl)isonicotinamide], for which the IC50 is > 1 µM.

As for `O=C(Nc1cc(NS(=O)(=O)c2ccc(F)cc2F)cc2c1NC(=O)C21CCC1)C1CCOCC1` [Compound 46, N-(5′-(2,4-Difluorophenylsulfonamido)-2′-oxospiro[cyclobutane-1,3′-indolin]-7′-yl)tetrahydro-2H-pyran-4-carboxamide], the IC50 was > 1 µM.

In the case of `CN1CCN(C(=O)c2cc(NS(=O)(=O)c3ccc(F)cc3F)cc3c2NC(=O)C32CCC2)CC1` [Compound 47, 2,4-Difluoro-N-(7′-(4-methylpiperazine-1-carbonyl)-2′-oxospiro[cyclobutane-1,3′-indolin]-5′-yl)benzenesulfonamide], the concentration for half-maximal inhibition (IC50) is > 1 µM.

With `O=C(c1cc(NS(=O)(=O)c2ccc(F)cc2F)cc2c1NC(=O)C21CCC1)N1CCOCC1` [Compound 48, 2,4-Difluoro-N-(7′-(morpholine-4-carbonyl)-2′-oxospiro [cyclobutane-1,3′-indolin]-5′-yl)benzenesulfonamide], the half-maximal inhibitory concentration (IC50) is > 1 µM.

Regarding `O=C(Nc1ccccn1)c1cc(NS(=O)(=O)c2ccc(F)cc2F)cc2c1NC(=O)C21CCC1` [Compound 49, 5′-(2,4-Difluorophenylsulfonamido)-2′-oxo-N-(pyridin-2-yl)spiro[cyclobutane-1,3′-indoline]-7′-carboxamide], the IC50 was 0.6 to 1 µM.

Regarding `O=C(NC1CCOCC1)c1cc(NS(=O)(=O)c2ccc(F)cc2F)cc2c1NC(=O)C21CCC1` [Compound 50, 5′-(2,4-Difluorophenylsulfonamido)-2′-oxo-N-(tetrahydro-2H-pyran-4-yl)spiro[cyclobutane-1,3′-indoline]-7′-carboxamide], the IC50 was < 0.6 µM.

Turning to `O=C(Nc1cccnc1)c1cc(NS(=O)(=O)c2ccc(F)cc2F)cc2c1NC(=O)C21CCC1` [Compound 51, 5′-(2,4-Difluorophenylsulfonamido)-2′-oxo-N-(pyridin-3-yl)spiro[cyclobutane-1,3′-indoline]-7′-carboxamide], the IC50 is 0.6 to 1 µM.

For the molecule `CN1CCC(NC(=O)c2cc(NS(=O)(=O)c3ccc(F)cc3F)cc3c2NC(=O)C32CCC2)C1` (centres unmarked) [Compound 52, 5′-(2,4-Difluorophenylsulfonamido)-N-(1-methylpyrrolidin-3-yl)-2′-oxospiro[cyclobutane-1,3′-indoline]-7′-carboxamide], the half-inhibitory concentration (IC50) is < 0.6 µM.

`CN1CCC(N(C)C(=O)c2cc(NS(=O)(=O)c3ccc(F)cc3F)cc3c2NC(=O)C32CCC2)CC1` [Compound 53, 5′-(2,4-Difluorophenylsulfonamido)-N-methyl-N-(1-methylpiperidin-4-yl)-2′-oxospiro[cyclobutane-1,3′-indoline]-7′-carboxamide]: the IC50 was > 1 µM.

`CCN1CCC(NC(=O)c2cc(NS(=O)(=O)c3ccc(F)cc3F)cc3c2NC(=O)C32CCC2)CC1` [Compound 54, 5′-(2,4-Difluorophenylsulfonamido)-N-(1-ethylpiperidin-4-yl)-2′-oxospiro[cyclobutane-1,3′-indoline]-7′-carboxamide]: the IC50 was < 0.6 µM.

In the case of `O=C(NC1CCCCC1)c1cc(NS(=O)(=O)c2ccc(F)cc2F)cc2c1NC(=O)C21CCC1` [Compound 55, N-cyclohexyl-5′-(2,4-difluorophenylsulfonamido)-2′-oxospiro[cyclobutane-1,3′-indoline]-7′-carboxamide], the IC50 lay within 0.6 to 1 µM.

Regarding `CN1CCC(NC(=O)c2cc(NS(=O)(=O)c3ccc(F)cc3F)cc3c2NC(=O)C32CCC2)CC1` [Compound 56, 5′-(2,4-Difluorophenylsulfonamido)-N-(1-methylpiperidin-4-yl)-2′-oxospiro[cyclobutane-1,3′-indoline]-7′-carboxamide], the IC50 is < 0.6 µM.

Consider `O=C(Nc1ccncc1)c1cc(NS(=O)(=O)c2ccc(F)cc2F)cc2c1NC(=O)C21CCC1` [Compound 57, 5′-(2,4-Difluorophenylsulfonamido)-2′-oxo-N-(pyridin-4-yl)spiro[cyclobutane-1,3′-indoline]-7′-carboxamide], for which the IC50 is < 0.6 µM.

Consider `CN1CCCC(NC(=O)c2cc(NS(=O)(=O)c3ccc(F)cc3F)cc3c2NC(=O)C32CCC2)C1` (centres unmarked) [Compound 58, 5′-(2,4-Difluorophenylsulfonamido)-N-(1-methylpiperidin-3-yl)-2′-oxospiro[cyclobutane-1,3′-indoline]-7′-carboxamide], for which the IC50 was < 0.6 µM.

On to `CC(C)(O)C1CCN(C(=O)c2cc(NS(=O)(=O)c3ccc(F)cc3F)cc3c2NC(=O)C32CCC2)CC1` [Compound 59, 2,4-Difluoro-N-(7′-(4-(2-hydroxypropan-2-yl)piperidine-1-carbonyl)-2′-oxospiro[cyclobutane-1,3′-indolin]-5′-yl)benzenesulfonamide], for which the IC50 was > 1 µM.

Take `COc1ccccc1S(=O)(=O)Nc1cc(C(=O)NC2CCN(C)CC2)c2c(c1)C1(CCC1)C(=O)N2` [Compound 60, 5′-(2-Methoxyphenylsulfonamido)-N-(1-methylpiperidin-4-yl)-2′-oxospiro[cyclobutane-1,3′-indoline]-7′-carboxamide]: the IC50 is < 0.6 µM.

On to `O=C(c1cc(NS(=O)(=O)c2ccc(F)cc2N2CCOCC2)cc2c1NC(=O)C21CCC1)N1CCOCC1` [Compound 61, 4-Fluoro-N-(7′-(morpholine-4-carbonyl)-2′-oxospiro[cyclobutane-1,3′-indolin]-5′-yl)-2-morpholinobenzenesulfonamide], for which the IC50 was > 1 µM.

For the molecule `O=C1Nc2c(Nc3ccncc3)cc(NS(=O)(=O)c3ccc(F)cc3F)cc2C12CCC2` [Compound 62, 2,4-Difluoro-N-(2′-oxo-7′-(pyridin-4-ylamino)spiro[cyclobutane-1,3′-indolin]-5′-yl)benzenesulfonamide], the IC50 was > 1 µM.

As for `CC(=O)Nc1cc(NS(=O)(=O)c2ccc(F)cc2F)cc2c1NC(=O)C21CCC1` [Compound 63, N-(5′-((2,4-difluorophenyl)sulfonamido)-2′-oxospiro[cyclobutane-1,3′-indolin]-7′-yl)acetamide], the IC50 was 0.6 to 1 µM.

Turning to `COc1ccccc1S(=O)(=O)Nc1cc(C(=O)NC2CCNCC2)c2c(c1)C1(CCC1)C(=O)N2` [Compound 64, 5′-((2-methoxyphenyl)sulfonamido)-2′-oxo-N-(piperidin-4-yl)spiro[cyclobutane-1,3′-indoline]-7′-carboxamide], the IC50 is < 0.6 µM.

On to `O=C(NC1CCCNC1)c1cc(NS(=O)(=O)c2ccc(F)cc2F)cc2c1NC(=O)C21CCC1` (centres unmarked) [Compound 65, 5′-(2,4-Difluorophenylsulfonamido)-2′-oxo-N-(piperidin-3-yl)spiro[cyclobutane-1,3′-indoline]-7′-carboxamide], for which the IC50 was < 0.6 µM.

As to `O=C(NC1CCNCC1)c1cc(NS(=O)(=O)c2ccc(F)cc2F)cc2c1NC(=O)C21CCC1` [Compound 66, 5′-(2,4-Difluorophenylsulfonamido)-2′-oxo-N-(piperidin-4-yl)spiro[cyclobutane-1,3′-indoline]-7′-carboxamide], the IC50 is < 0.6 µM.
